Where two headings read alike, the source gives them in different places.
Columns and labels:
mHTT protein = mHTT protein assay (2B7-MW1, Mesoscale Discovery); type: cell-based, human; conditions: GM04724 (CAG 70/20) Huntington's disease patient lymphoblast cells, 48 hours, 2B7-MW1 MSD; read-out: HTT Potency - Protein EC50 mHTT (average)
How it was run: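 GM04724 Huntington's patient lymphoblasts (CAG 70/20) were treated for 48 h at 10 μM to 0.6 nM. mHTT was quantified by 2B7-MW1 MSD immunoassay, whose signal depends on polyQ expansion and HTT fragment size. Viability was run on a parallel plate by CellTiter-Glo.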

[1] = tested on: Huntingtin (HTT) transcripts; assay: Quantitative splicing assay (HTT), qPCR; type: cell-based; conditions: Homo sapiens, GM04724 (CAG 70/20) Huntington's disease patient lymphoblasts, 24 h
How it was run: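 GM04724 HD patient lymphoblasts (CAG 70/20) dosed 24 h with compound from 2.5 uM to 0.15 nM (0.1% DMSO). Lysates converted to cDNA; TaqMan qPCR measured compound-induced inclusion of a cryptic exon in HTT intron 49.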

MDR1 = assay: MDCK-MDR1 permeability assay (BBB penetration potential); type: in vitro ADME; conditions: dog; for efflux ratio at 120 min, 5 μM: MDCK-MDR1, pH 7.4, MDCK-MDR1: Efflux; for Papp A→B at 120 min, 5 μM: MDCK-MDR1, pH 7.4, MDCK-MDR1: Papp A-B; for Papp B→A at 120 min, 5 μM: MDCK-MDR1, pH 7.4, MDCK-MDR1: Papp B-A
Description: (§1) Each determination is performed in duplicate. […] Analytical conditions are outlined below.

[2] = tested on: MDR1-MDCK cell monolayers; assay: as above; type: in vitro ADME; conditions: dog, MDCK-MDR1, 120 min, 5 μM, pH 7.4
Description: as §1

[3] = qPCR HTTex49_50, read-out: HTT Potency - Splicing: E49-50 EC50 (average)
[4] = qPCR cryptic exon 49b inclusion, read-out: HTT Potency - Splicing: E49b EC50 (average)

Structure (SMILES) | EC50 (mHTT protein) | EC50 [1, 3] | EC50 [1, 4] | efflux ratio at 120 min, 5 μM (MDR1) | Papp A→B at 120 min, 5 μM (MDR1) | Papp B→A at 120 min, 5 μM (MDR1) | MDCK-MDR1: % Recov A-B [2] | MDCK-MDR1: % Recov B-A [2]
Cc1ncc(-c2ccc(-c3ccc(O[C@@H]4C[C@H]5CCC[C@H](N5)[C@@H]4F)nn3)c(O)c2)s1 (single isomer, unassigned) [96-ENT1] | 16 to 50 nM | 16 to 50 nM | 16 to 50 nM | 2 | 7.37 ×10⁻⁶ cm/s | 15.2 ×10⁻⁶ cm/s | 39% | 72%
Cn1cc(-c2ccc(-c3ccc(O[C@H]4C[C@@H]5CCC[C@@H](N5)[C@H]4F)nn3)c(O)c2F)cn1 (single isomer, unassigned) [119-ENT2] | 51 to 100 nM | 16 to 50 nM | 16 to 50 nM | 3 | 9.17 ×10⁻⁶ cm/s | 29.4 ×10⁻⁶ cm/s | 59% | 64%
Oc1cc(-c2cn[nH]c2)ccc1-c1ccc(O[C@@H]2C[C@H]3COC[C@H](N3)[C@@H]2F)nn1 (single isomer, unassigned) [123-ENT1] | 101 to 500 nM | 101 to 500 nM | 101 to 500 nM | 14 | 6.22 ×10⁻⁶ cm/s | 87.8 ×10⁻⁶ cm/s | 86% | 90%
Oc1cc(-n2ccc(F)n2)ccc1-c1ccc(O[C@H]2C[C@@H]3CCC[C@@H](N3)[C@H]2F)nn1 (single isomer, unassigned) [115-ENT2] | 0.01 to 15 nM | 16 to 50 nM | 16 to 50 nM | 2 | 6.9 ×10⁻⁶ cm/s | 12 ×10⁻⁶ cm/s | 43% | 67%
Cn1cc(-c2cc(O)c(-c3ccc(O[C@H]4C[C@@H]5CCC[C@@H](N5)[C@H]4F)nn3)cn2)cn1 (single isomer, unassigned) [64-ENT2] | 501 to 10000 nM | 501 to 10000 nM | 501 to 10000 nM | 50 | 0.21 ×10⁻⁶ cm/s | 10.7 ×10⁻⁶ cm/s | 92% | 97%
Oc1cc(-c2ccn3ccnc3c2)ccc1-c1ccc(O[C@H]2C[C@@H]3CCC[C@@H](N3)[C@H]2F)nn1 (single isomer, unassigned) [83-ENT2] | 101 to 500 nM | 501 to 10000 nM | 501 to 10000 nM | 12 | 0.77 ×10⁻⁶ cm/s | 9.61 ×10⁻⁶ cm/s | 47% | 66%
Cn1ccc2cc(O)c(-c3ccc(O[C@H]4C[C@]5(C)CC[C@@](C)(N5)[C@H]4F)nn3)cc2c1=O (single isomer, unassigned) [130-ENT1] | 0.01 to 15 nM | 51 to 100 nM | 16 to 50 nM | 6 | 7.86 ×10⁻⁶ cm/s | 43.7 ×10⁻⁶ cm/s | 78% | 80%
Cn1cnc(-c2ccc(-c3ccc(O[C@@H]4C[C@@]5(C)CCC[C@](C)(N5)[C@@H]4F)nn3)c(O)c2)cc1=O (single isomer, unassigned) [139-ENT1] | 0.01 to 15 nM | 16 to 50 nM | 16 to 50 nM | 14 | 2.36 ×10⁻⁶ cm/s | 32.1 ×10⁻⁶ cm/s | 75% | 75%
Cc1cc(-c2ccc(-c3ccc(O[C@@H]4C[C@H]5CCC[C@H](N5)[C@@H]4F)nn3)c(O)c2)ccn1 (single isomer, unassigned) [88-ENT1] | 16 to 50 nM | 16 to 50 nM | 16 to 50 nM | 3 | 7.03 ×10⁻⁶ cm/s | 22.1 ×10⁻⁶ cm/s | 51% | 64%
Oc1cc(-c2cnccn2)ccc1-c1ccc(O[C@H]2C[C@@H]3CCC[C@@H](N3)[C@H]2F)nn1 (single isomer, unassigned) [79-ENT2] | 101 to 500 nM | 51 to 100 nM | 51 to 100 nM | 3 | 9.52 ×10⁻⁶ cm/s | 25.8 ×10⁻⁶ cm/s | 74% | 82%
COc1cc(-c2ccc(-c3ccc(O[C@H]4C[C@@H]5CCC[C@@H](N5)[C@H]4F)nn3)c(O)c2)cnn1 (single isomer, unassigned) [76-ENT2] | 0.01 to 15 nM | 0.01 to 15 nM | 0.01 to 15 nM | 10 | 4.19 ×10⁻⁶ cm/s | 39.9 ×10⁻⁶ cm/s | 82% | 85%
Cn1cc(-c2ccc(-c3ccc(O[C@@H]4C[C@H]5CC[C@H](N5)[C@@H]4F)nn3)c(O)c2)cn1 (single isomer, unassigned) [60-ENT1] | 16 to 50 nM | 51 to 100 nM | 16 to 50 nM | 4 | 7.46 ×10⁻⁶ cm/s | 30.5 ×10⁻⁶ cm/s | 68% | 84%
Cn1ccc2cc(-c3ccc(O[C@@H]4C[C@H]5CCC[C@H](N5)[C@@H]4F)nn3)c(O)cc2c1=O (single isomer, unassigned) [125-ENT2] | 16 to 50 nM | 101 to 500 nM | 51 to 100 nM | 16 | 3.2 ×10⁻⁶ cm/s | 52 ×10⁻⁶ cm/s | 84% | 87%
Cn1cc(-c2ccc(-c3ccc(O[C@@H]4C[C@H]5CCC[C@H](N5)[C@H]4F)nn3)c(O)c2)cn1 (single isomer, unassigned) [49-ENT1] | 51 to 100 nM | 51 to 100 nM | 51 to 100 nM | 2 | 5.36 ×10⁻⁶ cm/s | 11.8 ×10⁻⁶ cm/s | 49% | 82%
Cn1c(=O)oc2cc(-c3ccc(O[C@H]4C[C@@H]5CCC[C@@H](N5)[C@H]4F)nn3)c(O)cc21 (single isomer, unassigned) [74-ENT2] | 501 to 10000 nM | 501 to 10000 nM | 501 to 10000 nM | 5 | 6.96 ×10⁻⁶ cm/s | 31.4 ×10⁻⁶ cm/s | 87% | 75%
Oc1cc(-c2nncs2)ccc1-c1ccc(O[C@H]2C[C@@H]3CCC[C@@H](N3)[C@H]2F)nn1 (single isomer, unassigned) [116-ENT2] | 16 to 50 nM | 101 to 500 nM | 101 to 500 nM | 5 | 11.3 ×10⁻⁶ cm/s | 61.4 ×10⁻⁶ cm/s | 90% | 95%
Cn1cc(-c2ccc(-c3ccc(O[C@@H]4C[C@H]5CCC[C@H](N5)[C@@H]4F)nn3)c(O)c2)oc1=O (single isomer, unassigned) [97-ENT1] | 0.01 to 15 nM | 16 to 50 nM | 16 to 50 nM | 14 | 3.67 ×10⁻⁶ cm/s | 50.4 ×10⁻⁶ cm/s | 83% | 78%
Cn1cc(-c2ccc(-c3ccc(O[C@H]4C[C@@H]5CCC[C@@H](N5)[C@@H]4F)nn3)c(O)c2)cn1 (single isomer, unassigned) [49-ENT2] | 16 to 50 nM | 16 to 50 nM | 0.01 to 15 nM | 3 | 4.62 ×10⁻⁶ cm/s | 15.4 ×10⁻⁶ cm/s | 46% | 75%
